Assay results published in ChEMBL document CHEMBL1201862, “PubChem BioAssay data set” (2004).
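Exposure lasted 48 hours, with cells grown in 96-well plates and compounds tested at five concentrations. At the GI50, growth is halved.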 The source made the active and inactive calls. No stated cut-off is given here; in the data, active = GI50 up to about 1.1 µM and inactive = higher.

Experiments:
Experiment in all cases: NCI anticancer screen, dose series, 48 h
NCI-H460 = tested on: NCI-H460
OVCAR-5 = tested on: OVCAR-5
PC-3 = tested on: PC-3
SK-OV-3 = tested on: SK-OV-3
Malme-3M = tested on: Malme-3M
CCRF-CEM = tested on: CCRF-CEM
Hs-578T = tested on: Hs-578T
UACC-62 = tested on: UACC-62
SNB-19 = tested on: SNB-19
SN12C = tested on: SN12C
HOP-92 = tested on: HOP-92
A549 = tested on: A549
CAKI-1 = tested on: CAKI-1
HCC 2998 = tested on: HCC 2998
SW-620 = tested on: SW-620
NCI/ADR-RES = tested on: NCI/ADR-RES
DU-145 = tested on: DU-145
MDA-MB-231 = tested on: MDA-MB-231
HL-60 = tested on: HL-60

Measured: GI50

CC1(C)[C@H]2Cc3cc(-c4cc5c(cn4)[C@@H]4C[C@H]([C@@H]5[C@@H]5c6cc(-c7cc8c(cn7)[C@@H]7C[C@H](C8)C7(C)C)ncc6[C@@H]6C[C@H]5C6(C)C)C4(C)C)ncc3[C@@H]1C2
inactive: NCI-H460 > 100 µM | OVCAR-5 > 100 µM | PC-3 > 100 µM | SK-OV-3 > 100 µM | Malme-3M > 100 µM | CCRF-CEM > 100 µM | Hs-578T > 100 µM | UACC-62 > 100 µM | SNB-19 > 100 µM | SN12C > 100 µM | HOP-92 > 100 µM | A549 > 100 µM | CAKI-1 > 100 µM | HCC 2998 76.7 µM | SW-620 > 100 µM | NCI/ADR-RES > 100 µM | DU-145 > 100 µM | MDA-MB-231 > 100 µM | HL-60 > 100 µM

COc1cc(/C=C2\C[C@H]3[C@@H]4CCC5=CC(=O)CC[C@]5(C)[C@H]4CC[C@]3(C)C2=O)cc(OC)c1OC
inactive: NCI-H460 6.35 µM | OVCAR-5 33.1 µM | PC-3 3.23 µM | SK-OV-3 29.4 µM | Malme-3M 11.4 µM | CCRF-CEM 4.76 µM | Hs-578T 17.8 µM | UACC-62 4.35 µM | SNB-19 30.3 µM | SN12C 6.4 µM | HOP-92 13.1 µM | A549 4.15 µM | CAKI-1 5.37 µM | HCC 2998 15 µM | SW-620 8.61 µM | NCI/ADR-RES 3.86 µM | DU-145 19.5 µM | MDA-MB-231 7.74 µM | HL-60 3.39 µM

Cc1ccc(S(=O)(=O)ON2C(=O)c3c(N)c(C#N)c(-c4ccccc4)c(-c4ccccc4)c3C2=O)cc1
inactive: NCI-H460 35.6 µM | OVCAR-5 18 µM | PC-3 15.7 µM | SK-OV-3 16.2 µM | Malme-3M 21.5 µM | CCRF-CEM 3.16 µM | Hs-578T 71.3 µM | UACC-62 17.1 µM | SNB-19 24 µM | SN12C 18.1 µM | HOP-92 21.6 µM | A549 19.4 µM | CAKI-1 16 µM | HCC 2998 31.2 µM | SW-620 14.6 µM | NCI/ADR-RES 23.4 µM | DU-145 25.9 µM | MDA-MB-231 19.3 µM | HL-60 2.7 µM

O=C(Cn1nc(Br)c(Br)c1Br)c1ccccc1
inactive: NCI-H460 23.8 µM | OVCAR-5 40.7 µM | PC-3 32.7 µM | SK-OV-3 32.5 µM | Malme-3M 22 µM | CCRF-CEM 5.97 µM | Hs-578T 44.1 µM | UACC-62 20 µM | SNB-19 39.3 µM | SN12C 65.6 µM | HOP-92 20 µM | A549 33.7 µM | CAKI-1 26.7 µM | HCC 2998 36.6 µM | SW-620 34 µM | NCI/ADR-RES 30.1 µM | DU-145 38.5 µM | MDA-MB-231 18.9 µM | HL-60 10.9 µM

Oc1ccccc1CNCc1ccccc1O
inactive: NCI-H460 78.5 µM | OVCAR-5 > 100 µM | PC-3 > 100 µM | SK-OV-3 > 100 µM | Malme-3M > 100 µM | CCRF-CEM 59.2 µM | Hs-578T 39 µM | UACC-62 > 100 µM | SNB-19 > 100 µM | SN12C > 100 µM | HOP-92 99.5 µM | A549 > 100 µM | CAKI-1 > 100 µM | HCC 2998 19.2 µM | SW-620 > 100 µM | NCI/ADR-RES > 100 µM | DU-145 > 100 µM | MDA-MB-231 > 100 µM | HL-60 > 100 µM
